{
  "source": "patent US5340800A",
  "about": "“Peptide medicaments for the treatment of disease” (priority 1992, dated 1994)",
  "key": {"[1]": {"system": "polymorphonuclear leukocyte migration", "test": "Chemotaxis of polymorphonuclear leukocytes (trans-well, zymosan-activated human serum)", "assay_type": "cell-based", "conditions": "for % Inhibition of Migration (neutrophil chemotaxis): 0.5% zymosan-activated human serum", "experimental": "The materials and methods for ascertaining the chemotactic inhibitory properties of peptides are generally known in the art, and the preferred procedure is described by Capsoni, et al., 1989, J. of Immunol. Meth., 120:125. Generally, chemotaxis is determined by positioning the leukocytes and a chemotactic substance on opposite sides of a membrane in appropriate culture media. The preferred apparatus for doing a chemotaxis assay is produced by Costar Corporation, Cambridge, Mass., and is termed the trans-well cell culture apparatus. […] If a substance is being tested for inhibitory activity this can be achieved by combining it with the leukocytes or the chemotactic substance.\nThe procedure of Capsoni, et al., above, was followed with the following modifications. Leukocytes may be isolated and labelled with ^111 Indium as described for the adhesion assay, above. The cells are resuspended after labelling in an appropriate cell culture medium at about 5×10^6 cells/ml. Next, a desired amount of the cell suspension is mixed with a predetermined amount of the peptide(s) to be tested for inhibitory activity, and the mixture added to an appropriate filter device. Three μm-pore membranes are situated in the wells of a 24 trans-well tissue culture plate. The cell/inhibitory peptide mixture is incubated for a short time at 37° C. to acclimate the cells to the membrane surface, and to provide sufficient time for them to settle onto the membrane surface. Next, inserts are set in wells containing cell culture media. The media contains zymosan-activated human serum at about 0.5%. Zymosan activation generates complement-derived chemotactic factors which attract the leukocytes through the pores of the membrane. This media was also prewarmed for an appropriate time prior to addition to the cell culture wells. After a 30 minute incubation period at 37° C., the number of leukocytes that have migrated through the membrane filter, in the presence or absence of CD18 peptides, is readily determined by counting the amount of ^111 Indium present in the media. This may be facilitated by adding an appropriate detergent at an appropriate concentration to the media in the wells prior to removing an aliquot for counting. In this way, the inhibitory activities of the peptide being tested could be determined.\nMany of the materials and methods used to test the inhibitory activity of the CD18 peptides on the chemotactic response of the polymorphonuclear leukocytes are similar or identical to those used to perform the adhesion assays described in Example 1. Polymorphonuclear leukocytes were isolated and labelled with ^111 Indium as described before, and the cells were suspended in RPMI 1640 culture medium at a concentration of 5×10^6 /ml. Next, 75 μl of the cell suspension and 25 μl of media containing a desired concentration of a CD18 peptide were added to trans-well inserts, and the mixture was incubated at 37° C. for 10 minutes.\nTo the bottom wells of the 24-well plate 0.6 ml of media containing 0.5% zymosan-activated human serum was added. This solution was also warmed to 37° C. for 10 minutes prior to use.\nNext, the assay was conducted by incubating the trans-well inserts containing the cell suspension with the desired CD18 peptide in the 24-well plates at 37° C. for 30 minutes. Subsequently, the inserts were removed, and 60 μl of a 10% sodium dodecyl sulphate solution was added to the wells of the 24-well plate. The plates were incubated with gentle shaking at room temperature for 15 minutes, and 110 μl aliquots were removed and the amount of ^111 Indium determined using a gamma-counter."}, "[2]": {"system": "polymorphonuclear leukocyte adhesion to endothelial cells activated with IL1", "assay_type": "cell-based, human"}},
  "note": "Read-outs that look alike come from different tables or passages of the source. No end group written: not given here.",
  "data": [
    {"sequence": "IGWRNVTRLLVFATDDGFHFAGDGKLGAI [Peptide 4-29, NH2 --Ile--Gly--Trp--Arg--Asn--Val--Thr--Arg--Leu--Leu--Val--Phe--Ala--Thr--Asp--Asp--Gly--Phe--His--Phe--Ala--Gly--Asp--Gly--Lys--Leu--Gly--Ala--Ile--COOH]", "values": [
      {"measurement": "concentration of peak activity in chemotaxis inhibition", "setting": "[1]; 6 donors, 10^-4 -10^-7", "result": "10^-5 M"},
      {"measurement": "inhibition of chemotaxis migration (in words)", "setting": "[1]; 10^-4 -10^-5 M", "result": "marked inhibition"},
      {"measurement": "% Inhibition of Migration (neutrophil chemotaxis)", "setting": "[1]; 10^-4 M, donor 140", "result": 83, "unit": "%"},
      {"measurement": "percent inhibition (-) or enhancement of polymorphonuclear leukocyte migration", "setting": "[1]; 10^-4 M, donor 195", "result": -93, "unit": "%"},
      {"measurement": "% Inhibition of Migration (neutrophil chemotaxis)", "setting": "[1]; 10^-4 M, donor 195", "result": 76, "unit": "%"},
      {"measurement": "% Inhibition of Migration (neutrophil chemotaxis)", "setting": "[1]; 10^-4 M, donor 279", "result": 74, "unit": "%"},
      {"measurement": "% Inhibition of Migration (neutrophil chemotaxis)", "setting": "[1]; 10^-4 M, donor 363", "result": 76, "unit": "%"},
      {"measurement": "percent inhibition (-) or enhancement of polymorphonuclear leukocyte migration", "setting": "[1]; 10^-4 M, donor 499", "result": -87, "unit": "%"},
      {"measurement": "percent inhibition (-) or enhancement of polymorphonuclear leukocyte migration", "setting": "[1]; 10^-4 M, donor 591", "result": -74, "unit": "%"},
      {"measurement": "percent inhibition (-) or enhancement of polymorphonuclear leukocyte migration", "setting": "[1]; 10^-4 M, donor 593", "result": -88, "unit": "%"},
      {"measurement": "% Inhibition of Migration (neutrophil chemotaxis)", "setting": "[1]; 10^-5 M, donor 140", "result": 69, "unit": "%"},
      {"measurement": "% Inhibition of Migration (neutrophil chemotaxis)", "setting": "[1]; 10^-5 M, donor 169", "result": 75, "unit": "%"},
      {"measurement": "percent inhibition (-) or enhancement of polymorphonuclear leukocyte migration", "setting": "[1]; 10^-5 M, donor 195", "result": -93, "unit": "%"},
      {"measurement": "% Inhibition of Migration (neutrophil chemotaxis)", "setting": "[1]; 10^-5 M, donor 195", "result": 87, "unit": "%"},
      {"measurement": "% Inhibition of Migration (neutrophil chemotaxis)", "setting": "[1]; 10^-5 M, donor 279", "result": 49, "unit": "%"},
      {"measurement": "% Inhibition of Migration (neutrophil chemotaxis)", "setting": "[1]; 10^-5 M, donor 359", "result": 74, "unit": "%"},
      {"measurement": "% Inhibition of Migration (neutrophil chemotaxis)", "setting": "[1]; 10^-5 M, donor 363", "result": 79, "unit": "%"},
      {"measurement": "percent inhibition (-) or enhancement of polymorphonuclear leukocyte migration", "setting": "[1]; 10^-5 M, donor 499", "result": -79, "unit": "%"},
      {"measurement": "percent inhibition (-) or enhancement of polymorphonuclear leukocyte migration", "setting": "[1]; 10^-5 M, donor 591", "result": -88, "unit": "%"},
      {"measurement": "percent inhibition (-) or enhancement of polymorphonuclear leukocyte migration", "setting": "[1]; 10^-5 M, donor 593", "result": -88, "unit": "%"},
      {"measurement": "% Inhibition of Migration (neutrophil chemotaxis)", "setting": "[1]; 10^-6 M, donor 140", "result": 2, "unit": "%"},
      {"measurement": "percent inhibition (-) or enhancement of polymorphonuclear leukocyte migration", "setting": "[1]; 10^-6 M, donor 195", "result": 11, "unit": "%"},
      {"measurement": "% Inhibition of Migration (neutrophil chemotaxis)", "setting": "[1]; 10^-6 M, donor 195", "result": 34, "unit": "%"},
      {"measurement": "% Inhibition of Migration (neutrophil chemotaxis)", "setting": "[1]; 10^-6 M, donor 279", "result": 17, "unit": "%"},
      {"measurement": "% Inhibition of Migration (neutrophil chemotaxis)", "setting": "[1]; 10^-6 M, donor 363", "result": 34, "unit": "%"},
      {"measurement": "percent inhibition (-) or enhancement of polymorphonuclear leukocyte migration", "setting": "[1]; 10^-6 M, donor 499", "result": 0, "unit": "%"},
      {"measurement": "percent inhibition (-) or enhancement of polymorphonuclear leukocyte migration", "setting": "[1]; 10^-6 M, donor 591", "result": 0, "unit": "%"},
      {"measurement": "percent inhibition (-) or enhancement of polymorphonuclear leukocyte migration", "setting": "[1]; 10^-6 M, donor 593", "result": 4, "unit": "%"},
      {"measurement": "% Inhibition of Migration (neutrophil chemotaxis)", "setting": "[1]; 10^-7 M, donor 140", "result": 0, "unit": "%"},
      {"measurement": "% Inhibition of Migration (neutrophil chemotaxis)", "setting": "[1]; 10^-7 M, donor 279", "result": 0, "unit": "%"},
      {"measurement": "inhibitory activity on chemotaxis (in words)", "setting": "[1]; PMNs from 6 donors", "result": "significant activity being observed for all donors"},
      {"measurement": "Percent Change in PMN Adhesion to ECs activated with IL1", "setting": "[2]; 10^-7 M, donor 155*, peptide 1 wk 4°", "result": "+59%"},
      {"measurement": "Percent Change in PMN Adhesion to ECs activated with IL1", "setting": "[2]; 10^-7 M, donor 272*, peptide 1 wk 4°", "result": "+2%"},
      {"measurement": "Percent Change in PMN Adhesion to ECs activated with IL1", "setting": "[2]; 10^-8 M, donor 108*, peptide frozen", "result": "+21%"},
      {"measurement": "Percent Change in PMN Adhesion to ECs activated with IL1", "setting": "[2]; 10^-8 M, donor 489*, peptide frozen", "result": -3, "unit": "%"}
    ]}
  ]
}
